Measurements taken from ChEMBL document CHEMBL1201862, “PubChem BioAssay data set” (2004).
Activity calls are given as the source filed them.

Columns and labels:
[1] = cytotoxicity in MIN6 insulinoma cells, dose response, cytotoxicity control, cell-based, mouse insulinoma (AID 2122); format: functional;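 also: confirmatory high-throughput counterscreen run to flag cytotoxic compounds; mouse MIN-6 beta cells carrying an insulin promoter eGFP reporter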
[2] = insulin promoter down-regulators in MIN6 cells, imaging, high-content screening, mouse beta cells (AID 1628); format: functional
Galanin receptor type 2 = Galanin receptor type 2 (Homo sapiens, UniProt O43603); assay: Dose Response cell-based high-throughput screening assay to identify antagonists of galanin receptor 2 (GALR2). [Related pubchem assays: 828, 866 ]; format: functional
Sequence of Galanin receptor type 2 (O43603 whole entry): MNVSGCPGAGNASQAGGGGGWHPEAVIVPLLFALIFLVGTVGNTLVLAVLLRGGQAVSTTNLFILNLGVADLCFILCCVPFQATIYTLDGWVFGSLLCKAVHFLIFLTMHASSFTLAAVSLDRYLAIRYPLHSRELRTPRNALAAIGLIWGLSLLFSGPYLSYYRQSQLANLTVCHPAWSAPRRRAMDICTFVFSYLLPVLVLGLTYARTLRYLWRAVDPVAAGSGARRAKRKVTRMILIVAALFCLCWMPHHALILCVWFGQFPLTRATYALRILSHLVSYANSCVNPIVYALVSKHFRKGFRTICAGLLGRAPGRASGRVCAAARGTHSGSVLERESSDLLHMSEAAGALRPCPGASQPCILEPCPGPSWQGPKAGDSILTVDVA

[3] = control 3'UTR Renilla luciferase suppression, dose response, counter-screen for Shn3 inhibitor project, cell-based, Clone20-Shn3RL, cherry-picked (AID 624133); format: functional
[4] = Shn3 3'UTR reporter inhibitors, dose response, cell-based, Clone20 osteoblasts, firefly luciferase, cherry-picked (AID 624132); format: functional;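 also: firefly luciferase luminescence from reporter carrying the Shn3 3'UTR in osteoblasts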
BJ [5] = assay: cytotoxicity toward BJ-TERT fibroblasts, dose response, cell-based, RAS-independent, luminescence (AID 1933); format: functional; details: Homo sapiens
[6] = target: T1, DNA repair protein RAD52 homolog (Homo sapiens, UniProt P43351); format: functional, biochemical
T1 sequence (P43351 whole entry): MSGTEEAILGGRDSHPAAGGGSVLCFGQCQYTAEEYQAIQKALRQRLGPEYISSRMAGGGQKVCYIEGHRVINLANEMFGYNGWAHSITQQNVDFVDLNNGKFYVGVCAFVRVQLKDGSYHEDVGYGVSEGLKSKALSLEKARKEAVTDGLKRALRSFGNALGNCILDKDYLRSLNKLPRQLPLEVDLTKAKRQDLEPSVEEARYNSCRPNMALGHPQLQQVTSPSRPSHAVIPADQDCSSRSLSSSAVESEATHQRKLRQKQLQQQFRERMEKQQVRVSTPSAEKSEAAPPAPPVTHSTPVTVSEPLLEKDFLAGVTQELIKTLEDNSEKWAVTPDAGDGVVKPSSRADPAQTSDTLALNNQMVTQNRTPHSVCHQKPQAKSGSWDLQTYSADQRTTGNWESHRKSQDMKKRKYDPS

[7] = NIH-3T3 fibroblast cytotoxicity, dose response, cytotoxicity control, cell-based, fluorescence, Alamar Blue, secondary assay (AID 2327); format: functional;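 also: NIH-3T3 mouse fibroblasts cultured with fluconazole at 8 µg/mL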
CAAX prenyl protease 1 = CAAX prenyl protease 1 (Saccharomyces cerevisiae S288c, UniProt P47154); assay: Ste24 protease inhibitors, dose response, biochemical, S. cerevisiae, plate reader, cherry-pick (AID 488815)
Sequence of CAAX prenyl protease 1 (P47154 whole entry): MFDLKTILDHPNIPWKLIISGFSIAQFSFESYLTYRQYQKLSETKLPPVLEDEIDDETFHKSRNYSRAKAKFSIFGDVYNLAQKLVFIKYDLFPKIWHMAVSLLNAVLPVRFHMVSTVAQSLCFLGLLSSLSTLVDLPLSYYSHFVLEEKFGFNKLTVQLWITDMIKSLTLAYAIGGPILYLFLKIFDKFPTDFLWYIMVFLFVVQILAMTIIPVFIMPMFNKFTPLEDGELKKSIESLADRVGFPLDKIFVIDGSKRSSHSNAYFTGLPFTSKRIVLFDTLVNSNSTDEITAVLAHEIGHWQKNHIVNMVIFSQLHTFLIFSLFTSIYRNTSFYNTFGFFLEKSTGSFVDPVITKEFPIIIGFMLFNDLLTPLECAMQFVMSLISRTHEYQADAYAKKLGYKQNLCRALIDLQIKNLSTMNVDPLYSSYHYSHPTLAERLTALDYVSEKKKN

BJ [8] = assay: cytotoxicity toward Ras-transformed BJeLR fibroblasts, dose response, cell-based, alamar blue fluorescence, cherrypicked samples (AID 2631); format: functional; details: Homo sapiens;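 also: confirmatory dose-response assay in RAS-dependent BJ fibroblasts engineered with TERT, LT and ST, with cytotoxicity read by fluorescence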
HEK293 [9] = assay: cells; format: functional, cell-based; details: Homo sapiens
[10] = C. albicans growth with fluconazole, confirmation, fluorescence, retest (AID 2467); format: functional, cell-based
HEK293 [11] = assay: NOD1 signaling inhibitors, primary screen, cell-based, luminescence, uHTS (AID 1578); format: functional; details: Homo sapiens
Melanocortin receptor 4 = Melanocortin receptor 4 (Homo sapiens, UniProt P32245); format: functional, cell-based;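 also: Cell-based assay with luminescence read-out, confirmatory dose-response testing for agonist activity of biased ligands at MC4R; human U2OS cells with tagged receptor and beta-arrestin; potency of agonists that increase receptor coupling to beta-arrestin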
Sequence of Melanocortin receptor 4 (P32245 whole entry): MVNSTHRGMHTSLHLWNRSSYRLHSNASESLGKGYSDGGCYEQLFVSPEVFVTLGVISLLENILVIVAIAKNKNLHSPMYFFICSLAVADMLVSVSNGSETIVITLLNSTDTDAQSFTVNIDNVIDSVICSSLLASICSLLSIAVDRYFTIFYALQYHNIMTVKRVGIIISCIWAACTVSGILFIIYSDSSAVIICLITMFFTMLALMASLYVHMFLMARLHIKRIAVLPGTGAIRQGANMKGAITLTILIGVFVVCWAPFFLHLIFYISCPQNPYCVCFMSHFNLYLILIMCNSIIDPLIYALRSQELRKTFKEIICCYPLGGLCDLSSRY

BJ [12] = assay: cells; format: functional, cell-based; details: Homo sapiens
[13] = target: T2, Apoptotic protease-activating factor 1 (Homo sapiens, UniProt O14727); format: functional
T2 sequence (O14727 whole entry): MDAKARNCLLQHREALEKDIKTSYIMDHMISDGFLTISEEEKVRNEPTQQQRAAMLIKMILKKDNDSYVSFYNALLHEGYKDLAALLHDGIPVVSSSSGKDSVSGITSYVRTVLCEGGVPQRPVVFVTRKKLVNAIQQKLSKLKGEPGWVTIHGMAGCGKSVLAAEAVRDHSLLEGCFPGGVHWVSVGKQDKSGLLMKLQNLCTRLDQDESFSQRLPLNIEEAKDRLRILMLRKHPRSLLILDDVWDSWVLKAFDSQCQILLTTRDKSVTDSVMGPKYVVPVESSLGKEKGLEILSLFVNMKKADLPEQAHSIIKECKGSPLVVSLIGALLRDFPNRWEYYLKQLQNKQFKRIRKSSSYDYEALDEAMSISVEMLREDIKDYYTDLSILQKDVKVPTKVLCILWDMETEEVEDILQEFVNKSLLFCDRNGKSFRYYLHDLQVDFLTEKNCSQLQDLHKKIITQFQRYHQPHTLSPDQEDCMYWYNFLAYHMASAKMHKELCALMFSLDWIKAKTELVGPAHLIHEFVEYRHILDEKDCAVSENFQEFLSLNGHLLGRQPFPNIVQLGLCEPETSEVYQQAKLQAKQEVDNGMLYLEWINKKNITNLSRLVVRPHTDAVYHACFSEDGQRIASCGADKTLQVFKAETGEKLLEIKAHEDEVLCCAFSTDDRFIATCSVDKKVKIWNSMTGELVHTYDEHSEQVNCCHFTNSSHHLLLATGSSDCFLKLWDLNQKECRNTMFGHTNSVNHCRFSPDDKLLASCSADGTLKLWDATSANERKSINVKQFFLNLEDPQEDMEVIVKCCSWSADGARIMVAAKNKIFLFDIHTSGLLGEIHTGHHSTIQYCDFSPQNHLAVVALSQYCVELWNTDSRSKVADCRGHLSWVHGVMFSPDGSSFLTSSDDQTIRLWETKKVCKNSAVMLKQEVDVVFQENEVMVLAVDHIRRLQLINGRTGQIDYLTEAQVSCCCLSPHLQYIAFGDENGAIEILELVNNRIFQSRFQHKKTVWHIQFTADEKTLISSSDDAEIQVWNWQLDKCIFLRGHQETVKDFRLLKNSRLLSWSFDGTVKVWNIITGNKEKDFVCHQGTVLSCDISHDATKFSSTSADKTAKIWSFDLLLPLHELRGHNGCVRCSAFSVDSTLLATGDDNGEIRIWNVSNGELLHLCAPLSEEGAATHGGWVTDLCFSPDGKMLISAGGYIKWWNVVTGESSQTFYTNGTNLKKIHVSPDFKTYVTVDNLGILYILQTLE

[14] = target: Heat shock protein HSP 90-alpha (Homo sapiens, UniProt P07900); format: functional, organism-based
HEK293 [15] = assay: cells; format: functional, cell-based; details: Homo sapiens; remark: listed apart in the source
HEK293 [16] = assay: cells; format: functional, cell-based; details: Homo sapiens; remark: listed apart in the source
HEK293 [17] = assay: NOD2 signaling inhibitors in MDP-stimulated cells, cell-based, uHTS, luminescence (AID 2001); format: functional; details: Homo sapiens
BJ [18] = assay: cytotoxicity toward BJ-TERT-LT-ST fibroblasts, dose response, cell-based, RAS-independent, luminescence (AID 1935); format: functional; details: Homo sapiens;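 also: BJ fibroblasts immortalized with TERT plus LT and ST oncogenes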
INS1 = assay: beta cell apoptosis inhibitors, cytokine rescue, dose response, luminescence, retest (AID 449756); format: functional, cell-based; details: Rattus norvegicus;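 also: cell death triggered by IL-1 beta plus TNF-alpha plus IFN-gamma mixture; protective hits raise ATP signal compared with cytokine alone wells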
[19] = target: Nucleotide-binding oligomerization domain-containing protein 2 (Homo sapiens, UniProt Q9HC29); assay: NOD2 signaling inhibitors, cell-based, luminescence, uHTS, HEK293 (AID 1566); format: functional
Sequence of Nucleotide-binding oligomerization domain-containing protein 2 (Q9HC29 whole entry, the tested form may be a part): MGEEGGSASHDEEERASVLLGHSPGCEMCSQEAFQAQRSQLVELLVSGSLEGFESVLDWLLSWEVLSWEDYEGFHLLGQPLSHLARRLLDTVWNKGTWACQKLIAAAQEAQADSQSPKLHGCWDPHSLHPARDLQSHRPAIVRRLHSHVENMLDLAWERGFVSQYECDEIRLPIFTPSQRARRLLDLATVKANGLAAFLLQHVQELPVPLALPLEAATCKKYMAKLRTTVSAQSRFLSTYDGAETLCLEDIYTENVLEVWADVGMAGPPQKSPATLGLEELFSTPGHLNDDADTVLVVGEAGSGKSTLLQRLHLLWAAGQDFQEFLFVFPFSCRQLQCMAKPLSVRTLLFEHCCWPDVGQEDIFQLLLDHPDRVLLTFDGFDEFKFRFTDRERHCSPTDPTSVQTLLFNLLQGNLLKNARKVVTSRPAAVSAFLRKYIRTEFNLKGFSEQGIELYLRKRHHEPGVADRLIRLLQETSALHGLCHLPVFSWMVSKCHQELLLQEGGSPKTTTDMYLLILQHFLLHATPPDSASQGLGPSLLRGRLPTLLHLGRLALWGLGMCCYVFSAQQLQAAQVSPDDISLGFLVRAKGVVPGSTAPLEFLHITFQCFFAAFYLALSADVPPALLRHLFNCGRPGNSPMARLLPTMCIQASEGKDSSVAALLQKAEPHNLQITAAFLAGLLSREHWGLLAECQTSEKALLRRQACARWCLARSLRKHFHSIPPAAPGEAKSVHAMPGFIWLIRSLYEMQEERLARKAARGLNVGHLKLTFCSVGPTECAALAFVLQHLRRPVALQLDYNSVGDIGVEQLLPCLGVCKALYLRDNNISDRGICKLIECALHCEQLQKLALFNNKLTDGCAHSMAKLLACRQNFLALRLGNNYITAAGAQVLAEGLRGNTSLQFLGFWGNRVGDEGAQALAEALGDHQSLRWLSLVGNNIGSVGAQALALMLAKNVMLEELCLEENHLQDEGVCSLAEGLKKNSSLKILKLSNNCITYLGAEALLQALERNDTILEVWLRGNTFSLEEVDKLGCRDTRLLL

[20] = cytotoxicity in HEK-293T cells, dose response, cytotoxicity control for TCR NF-kB inhibitor project, luminescence, T-cell screen hits (AID 489026); format: functional, cell-based;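 also: cells exposed to compound about 14 hours before the viability readout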
[21] = target: T3, Ubiquitin-conjugating enzyme E2 N (Homo sapiens, UniProt P61088); format: functional;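 also: Dose-response confirmation in a TR-FRET assay detecting UBC13-driven polyubiquitin chain formation, inhibition measured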
T3 sequence (P61088 whole entry): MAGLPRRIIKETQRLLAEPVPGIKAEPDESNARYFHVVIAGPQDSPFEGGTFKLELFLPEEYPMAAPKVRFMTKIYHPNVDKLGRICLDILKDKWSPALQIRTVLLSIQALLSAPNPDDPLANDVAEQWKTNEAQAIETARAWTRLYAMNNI

[22] = cytotoxicity toward DRD oncogenic fibroblasts, dose response, cell-based, non-viral oncogenic, luminescence (AID 1934); format: functional; details: Homo sapiens
CAAX prenyl protease 2 = target: T4, CAAX prenyl protease 2 (Saccharomyces cerevisiae S288c, UniProt Q03530); format: biochemical
T4 sequence (Q03530 whole entry): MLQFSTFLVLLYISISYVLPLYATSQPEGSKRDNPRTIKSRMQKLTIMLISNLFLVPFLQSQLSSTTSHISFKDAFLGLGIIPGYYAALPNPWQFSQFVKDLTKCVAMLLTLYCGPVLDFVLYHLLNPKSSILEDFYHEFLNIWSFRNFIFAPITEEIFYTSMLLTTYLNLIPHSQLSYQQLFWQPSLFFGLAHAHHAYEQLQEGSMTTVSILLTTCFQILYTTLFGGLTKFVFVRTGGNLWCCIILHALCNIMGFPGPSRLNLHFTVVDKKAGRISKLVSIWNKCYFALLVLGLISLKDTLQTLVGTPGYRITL

COC(=O)c1ccc(COC(=O)c2[nH]c(C)c(C(C)=O)c2C)o1
IC50 [1]: 3.23 µM (active)
IC50 [2]: 2.72 µM (active)
IC50 (Galanin receptor type 2): > 42 µM (not active)
AC50 [3]: 2.46 µM (active)
AC50 [4]: 2.58 µM (active)

CCC(C)(C)c1ccc(OCCCC[n+]2cccc(C)c2C)c(C(C)(C)CC)c1
EC50 (BJ [5]): 3.96 µM (inconclusive)
AC50 [6]: 31.2 µM (active)
EC50 [7]: > 160 µM (inactive)
AC50 (CAAX prenyl protease 1): 9.82 µM (active)
EC50 (BJ [8]): 2.48 µM (active)
IC50 (HEK293 [9]): 3.2 µM (active)
EC50 [10]: 0.67 µM (active)
EC50 (HEK293 [11]): 4.56 µM (active)
EC50 (Melanocortin receptor 4): > 3.3 µM (active)
EC50 (BJ [12]): 4.18 µM (inconclusive)
IC50 [13]: 20.2 µM (active)
AC50 [14]: 5.38 µM (active)
IC50 (HEK293 [15]): > 20 µM (inactive)
IC50 (HEK293 [16]): 6.37 µM (active)
IC50 (HEK293 [17]): 2.48 µM (active)
EC50 (BJ [18]): 5.09 µM (active)
AC50 (INS1): 0.632 µM (active)
EC50 [19]: 8.15 µM (active)
IC50 [20]: 56.1 µM (inactive)
IC50 [21]: > 20 µM (inactive)
EC50 [22]: 5.62 µM (active)
AC50 (CAAX prenyl protease 2): 8.03 µM (active)
